# Measured values reported in ChEMBL document CHEMBL4007392, “Modulating Mineralocorticoid Receptor with Non-steroidal Antagonists. New Opportunities for the Development of Potent and Selective Ligands without Off-Target Side Effects” (J Med Chem, 2017).
# Biological target: T1, Mineralocorticoid receptor (Homo sapiens) (UniProt P08235)
# T1 sequence (whole entry): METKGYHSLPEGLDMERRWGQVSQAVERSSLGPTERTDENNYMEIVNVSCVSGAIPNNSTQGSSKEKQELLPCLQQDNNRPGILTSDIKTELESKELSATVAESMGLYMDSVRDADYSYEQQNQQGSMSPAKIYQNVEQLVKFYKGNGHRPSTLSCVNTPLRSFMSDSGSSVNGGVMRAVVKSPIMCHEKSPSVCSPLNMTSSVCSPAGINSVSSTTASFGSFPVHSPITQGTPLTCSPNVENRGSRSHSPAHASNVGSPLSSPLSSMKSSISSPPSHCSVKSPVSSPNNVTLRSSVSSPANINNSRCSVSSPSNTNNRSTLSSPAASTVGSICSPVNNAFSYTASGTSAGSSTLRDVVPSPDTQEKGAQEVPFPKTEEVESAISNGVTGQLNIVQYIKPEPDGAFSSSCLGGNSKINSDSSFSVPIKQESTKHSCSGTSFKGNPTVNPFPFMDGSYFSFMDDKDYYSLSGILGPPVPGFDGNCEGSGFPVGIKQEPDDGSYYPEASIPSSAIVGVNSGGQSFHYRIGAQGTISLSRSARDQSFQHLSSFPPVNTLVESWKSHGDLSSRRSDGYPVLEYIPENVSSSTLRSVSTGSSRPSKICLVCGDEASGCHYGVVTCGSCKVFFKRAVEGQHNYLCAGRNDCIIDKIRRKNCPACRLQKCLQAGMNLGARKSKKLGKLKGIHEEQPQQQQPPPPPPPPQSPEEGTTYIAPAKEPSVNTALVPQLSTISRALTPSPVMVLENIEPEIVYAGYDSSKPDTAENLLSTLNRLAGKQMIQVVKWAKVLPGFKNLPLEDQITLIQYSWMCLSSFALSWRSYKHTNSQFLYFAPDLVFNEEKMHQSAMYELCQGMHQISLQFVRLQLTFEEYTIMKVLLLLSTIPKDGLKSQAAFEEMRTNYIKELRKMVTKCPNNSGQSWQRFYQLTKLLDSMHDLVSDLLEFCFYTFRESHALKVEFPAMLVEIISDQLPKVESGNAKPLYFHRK
# Assay: Antagonist activity at full-length human MR expressed in CHO-K1 cells assessed as inhibition of aldosterone-induced response measured after overnight incubation by luminesence analysis
# Assay type: cell-based
row,Inhibitory potency [nM],SMILES
1,15,CCC(O)C(CC(F)F)(c1ccc(C(F)(F)F)cc1)n1ncc2c(NS(C)(=O)=O)cccc21 (configuration not stated)
2,4,CCC(c1ccc(C(F)(F)F)cc1)(C(O)C(F)F)n1ncc2c(NS(=O)(=O)CC)cccc21 (configuration not stated)
3,11,CCC(c1ccc(C(F)(F)F)cc1)(C(O)C(F)F)n1ncc2c(NS(=O)(=O)CC)cc(F)cc21 (configuration not stated)
4,9,CCC(O)C(CC)(c1ccc(C(F)(F)F)cc1)n1ncc2c(NS(C)(=O)=O)cc(F)cc21 (configuration not stated)
5,3,CCC(O)C(CC)(c1ccc(Br)cc1)n1ncc2c(NS(C)(=O)=O)cccc21 (configuration not stated)

# Biological target: T2, Mineralocorticoid receptor (Homo sapiens, UniProt P08235)
# T2 sequence (P08235 whole entry): T1 sequence (whole entry)
# Assay: Displacement of [3H]-Aldosterone from MR overexpressed in human 293 cells measured after 2 hrs by Microbeta scintillation counting method
# Assay type: cell-based
row,Ki [nM],SMILES
1,0.79,C[C@H](CN1CCOCC1)n1/c(=N\C#N)[nH]c2cc(/C=C3\c4ccc(F)cc4COc4cc(F)ccc43)ccc21
2,0.08,CN1CCN(n2/c(=N\C#N)[nH]c3cc(/C=C4\c5ccccc5COc5cc(F)ccc54)ccc32)CC1
3,≤ 10,N#C/N=c1\[nH]c2cc(/C=C3/c4ccc(F)cc4OCc4c(F)cccc43)ccc2n1[C@@H]1C[C@H]2COCCN2C1
4,≤ 10,C[C@H](CN1CCOCC1)n1/c(=N\C#N)[nH]c2cc(/C=C3/c4ccc(F)cc4OCc4c(F)cccc43)ccc21
5,≤ 10,N#C/N=c1/[nH]c2cc(/C=C3/c4ccc(F)cc4OCc4c(F)cccc43)ccc2n1[C@@H]1C[C@@H]2COCCN2C1
6,≤ 10,C[C@@H](CN1CCOCC1)n1/c(=N/C#N)[nH]c2cc(/C=C3\c4ccccc4COc4cc(F)ccc43)ccc21
7,0.33,C[C@H](CN1CCOCC1)n1/c(=N\C(N)=O)[nH]c2cc(/C=C3\c4ccccc4COc4cc(F)ccc43)ccc21 [LY2623091]
8,≤ 10,CN1C[C@H](O)[C@@H](n2/c(=N/C#N)[nH]c3cc(/C=C4\c5ccccc5COc5cc(F)ccc54)ccc32)C1
9,0.23,N#C/N=c1/[nH]c2cc(/C=C3/c4ccc(F)cc4OCc4c(F)cccc43)ccc2n1[C@H]1C[C@@H]2COCCN2C1
10,≤ 10,C[C@@H](CN1CCOCC1)n1/c(=N/C#N)[nH]c2cc(/C=C3/c4ccc(F)cc4OCc4c(F)cccc43)ccc21
11,≤ 10,NC(=O)/N=c1/[nH]c2cc(/C=C3\c4ccccc4COc4cc(F)ccc43)ccc2n1[C@H]1C[C@@H]2COCCN2C1
12,≤ 10,N#C/N=c1/[nH]c2cc(/C=C3/c4ccc(F)cc4OCc4c(F)cccc43)ccc2n1[C@H]1C[C@H]2COCCN2C1
13,≤ 10,C[C@@H](CN1CCOCC1)n1/c(=N/C#N)[nH]c2cc(/C=C3\c4ccc(F)cc4COc4cc(F)ccc43)ccc21

# System: not listed separately
# Assay: Displacement of [3H]-Aldosterone from recombinant rhesus monkey MR expressed in baculovirus infected insect cells after 3 hrs by filter-based Topcount method
# Set-up: species or system Macaca mulatta
row,SMILES,Ki [nM]
1,CC(c1ccccc1)n1ccnc1C(c1ccccc1)c1ccccc1 (configuration not stated),285
2,COc1cc(C2C(C(=O)Oc3ccccc3)=C(C)NC(C)=C2C(=O)Oc2ccccc2)ccc1O,21.5
3,CCCSC1=C(C#N)C(c2ccccc2Cl)C(C(=O)Nc2ccccc2OC)=C(C)N1 (configuration not stated),14.9
4,COC(=O)C1=C(C)NC(C)=C(C(=O)OC)C1c1cccc2ccccc12,61
5,Cc1cccc(Cn2ccnc2C(c2ccccc2)c2ccccc2)c1,134
6,CCSC1=C(C#N)C(c2ccccc2Cl)C(C(=O)Nc2ccccc2OC)=C(C)N1 (configuration not stated),53

# Biological target: T2, Mineralocorticoid receptor
# Assay: Antagonist activity at Gal4-fused human MR LBD (671 to 984 residues) expressed in African Green Monkey CV-1 cells assessed as inhibition of aldosterone-induced transactivation activity after 20 hrs by luciferase reporter gene assay
# Assay type: cell-based
row,IC50 [nM],SMILES
1,< 500,Cc1cc(C(=O)Nc2cccc3ccccc23)c(C)n1-c1ccccc1C(F)(F)F
2,< 500,Cc1ccc(NC(=O)c2cc(C)n(-c3ccccc3C(F)(F)F)c2C)cc1Cl
3,3.8,Cc1c(C(=O)Nc2ccc(S(C)(=O)=O)cc2)cn([C@H](C)[C@H](C)O)c1-c1ccc(F)cc1C(F)(F)F
4,6.2,Cc1c(C(=O)Nc2ccc(S(C)(=O)=O)cc2)cc([C@H](C)[C@H](C)O)n1-c1ccc(F)cc1C(F)(F)F (mixture of isomers)
5,> 1000,"Cc1c(C(=O)Nc2ccc(S(C)(=O)=O)cc2)cn([C@H](C)[C@H](C)O)c1-c1ccc(F)cc1C(F)(F)F (single isomer, unassigned; atropisomer 2)"
6,< 500,Cc1[nH]c(C(=O)Nc2ccc(S(C)(=O)=O)cc2)c(C)c1-c1ccccc1C(F)(F)F
7,< 500,Cc1cc(C(=O)NCCc2ccccc2)c(C)n1-c1ccccc1C(F)(F)F
8,< 500,Cc1cc(C(=O)Nc2ccc(S(N)(=O)=O)cc2)c(C)n1-c1ccccc1C(F)(F)F

row,SMILES,IC50 [nM]
1,"Cc1c(C(=O)Nc2ccc(S(C)(=O)=O)cc2)cc(C[C@H](C)O)n1-c1ccc(Cl)cc1-c1ccc(F)cc1 (single isomer, unassigned; atropisomer 2)",> 1000
2,"Cc1c(C(=O)Nc2ccc(S(C)(=O)=O)cc2)cc(C[C@H](C)O)n1-c1ccc(Cl)cc1C(F)(F)F (single isomer, unassigned; atropisomer 2)",> 1000
3,"Cc1c(C(=O)Nc2ccc(S(C)(=O)=O)cc2)cc(CCF)n1-c1ccc(F)cc1OC(F)F (single isomer, unassigned; atropisomer 2)",> 1000
4,"Cc1c(C(=O)Nc2ccc(S(C)(=O)=O)cc2)cc(CCO)n1-c1ccc(Cl)cc1C(F)(F)F (single isomer, unassigned; atropisomer 2)",> 1000

# Biological target: T2, Mineralocorticoid receptor
# Assay: Antagonist activity at Gal4-fused human MR LBD (734 to 985 residues) expressed in CHO-K1 cells after 5 to 6 hrs by luciferase reporter gene assay
# Assay type: cell-based
row,IC50 [nM],SMILES
1,100,CCOc1nccc2c1C(c1ccc(C#N)cc1OC)C(C#N)=C(C)N2 (configuration not stated)
2,310,CCc1cnc2cccc(C3C(C#N)=C(C)NC(C)=C3C(=O)OC(C)C)c2c1 (configuration not stated)
3,18,COC(=O)c1c(C)nc(C)c(C(=O)CC2CCC2)c1-c1cccc2c(=O)cc(C)oc12
4,23,CC1=C(C#N)C(c2cccc3c2-c2ccccc2C3=O)C(C(=O)OC(C)C)=C(C)N1 (configuration not stated)
5,160,CC1=C(C#N)C(c2cccc3c(=O)cc(C)oc23)C(C(=O)OC(C)C)=C(C)N1 (configuration not stated)
6,7,CC(=O)C1=C(C)NC(C)=C(C(=O)OC2CCC2)[C@@H]1c1cccc2c(=O)cc(C)oc12

# Biological target: T2, Mineralocorticoid receptor
# Assay: Displacement of [3H]-Aldosterone from MR overexpressed in human 293 cells measured after overnight incubation by TopCount method
# Assay type: cell-based
row,Ki [nM],SMILES
1,≤ 500,CCC(CC)(c1ccc2ncsc2c1)c1c[nH]c2c(NS(C)(=O)=O)cccc12
2,≤ 500,CCC(CC)(c1ccc2c(c1)OCCO2)c1c[nH]c2c(NS(C)(=O)=O)cccc12
3,≤ 500,CCC(CC)(c1cc2ccccc2o1)c1c[nH]c2c(NS(C)(=O)=O)cccc12
4,≤ 500,CCC(CC)(c1ccc(Cl)cc1)c1c[nH]c2c(NS(C)(=O)=O)cccc12
5,≤ 500,CCC(CC)(c1ccc(O)cc1)c1c[nH]c2c(NS(C)(=O)=O)cccc12
6,≤ 500,CCC(CC)(c1ccccc1)c1c[nH]c2c(NS(C)(=O)=O)cccc12

# Biological target: T3, Mineralocorticoid receptor (Rattus norvegicus, UniProt P22199)
# T3 sequence (P22199 whole entry): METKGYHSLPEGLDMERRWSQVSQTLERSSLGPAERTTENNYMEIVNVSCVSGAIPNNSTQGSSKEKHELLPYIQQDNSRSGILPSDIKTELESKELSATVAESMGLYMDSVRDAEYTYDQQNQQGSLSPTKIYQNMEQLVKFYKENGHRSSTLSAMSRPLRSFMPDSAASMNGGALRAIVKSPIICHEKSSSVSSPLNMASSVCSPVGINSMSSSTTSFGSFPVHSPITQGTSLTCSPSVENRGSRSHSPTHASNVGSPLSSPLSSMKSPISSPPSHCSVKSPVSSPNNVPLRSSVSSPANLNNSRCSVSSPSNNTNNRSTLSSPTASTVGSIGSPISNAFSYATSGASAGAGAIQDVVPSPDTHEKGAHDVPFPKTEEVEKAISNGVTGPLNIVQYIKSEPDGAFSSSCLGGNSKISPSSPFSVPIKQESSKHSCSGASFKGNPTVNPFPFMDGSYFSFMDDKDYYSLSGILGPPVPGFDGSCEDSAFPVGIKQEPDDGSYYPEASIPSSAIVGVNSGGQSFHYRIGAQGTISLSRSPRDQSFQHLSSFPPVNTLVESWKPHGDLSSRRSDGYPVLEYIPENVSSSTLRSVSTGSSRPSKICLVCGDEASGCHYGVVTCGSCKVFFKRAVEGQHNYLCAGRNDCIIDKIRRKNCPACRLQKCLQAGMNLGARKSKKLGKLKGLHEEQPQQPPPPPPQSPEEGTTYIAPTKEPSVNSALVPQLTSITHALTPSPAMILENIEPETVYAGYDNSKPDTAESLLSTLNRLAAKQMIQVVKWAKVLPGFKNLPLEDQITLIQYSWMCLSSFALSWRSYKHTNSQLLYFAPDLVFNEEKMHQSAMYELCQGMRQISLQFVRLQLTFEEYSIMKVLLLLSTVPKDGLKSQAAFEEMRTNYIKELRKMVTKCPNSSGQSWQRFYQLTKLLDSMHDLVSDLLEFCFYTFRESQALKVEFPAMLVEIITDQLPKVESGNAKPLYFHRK
# Assay: Displacement of [3H]-Aldosterone from MR in Sprague-Dawley rat kidney cytosolic fraction measured after overnight incubation by liquid scintillation counting method
row,IC50 [nM],SMILES
1,< 500,Cc1cc(NS(C)(=O)=O)cc2c1C(c1ccc(F)cc1)=NC(C)(C)O2
2,< 500,CC1(C)N=C(c2ccc(Cl)cc2)c2ccc(NS(C)(=O)=O)cc2O1
3,< 500,CC1=C(c2ccc(F)cc2)c2ccc(NS(C)(=O)=O)cc2OC1(C)C
4,< 500,Cc1cc(Cl)ccc1C1=CC(C)(C)Oc2cc(NS(C)(=O)=O)ccc21
